Test results published in US20230071441A1, “CIGARETTE FILTER CONTAINING NATURAL PLANT MATERIAL, PREPARATION METHOD THEREOF, AND CIGARETTE INCLUDING THE FILTER” (KT & G Corporation, priority 2019, published 2023).

Tests used:
[1] = Methyl mercaptan reducing ability (deodorizing activity), headspace GC/MS; details: methyl mercaptan 1 μg/ml 2 ml, pH 7.5, 42 degrees C. 6 minutes; powders/granules 10 mg in 2 ml water; oil/flavoring liquid 2 ml; single ingredient 3 ppm
Experimental: Using the cigarette prepared in Example 24-1, an experiment was conducted to identify reducing ability for the methyl mercaptan as a representative halitosis ingredient in the cigarette smoke.
Pine needle and rosemary based powders, granules, oils, and flavoring liquid, as well as pine needle based fragrance carrying ingredients, that is, alpha-pinene, bonyl acetate, and rosemary based fragrance carrying ingredients, that is, 1,8-cineol, and borneol were added to the cigarette filter. Thus, a cigarette including the cigarette filter was prepared to identify methyl mercaptan reducing ability.
A content of methyl mercaptan as used was 1 ppm [1 μg/ml] 2 ml. When the pine needle and rosemary based powders and granules were used, 10 mg of the sample was extracted with 2 ml of water and was used. In one example, when using the oil and flavoring liquid based on pine needle and rosemary, 2 ml thereof was used. As for a single ingredient, 3 ppm (3 μg/ml) of the sample was extracted with 2 ml of water and was used.
The analysis experiment of reducing ability for methyl mercaptan included a pretreatment process of the sample, and the analysis process under the headspace sampler condition and the GC/MS-SIM condition. First, 10 mg of pine needle and rosemary based powders and granules sample were put into a 20 ml vial, which was immersed in 2 ml of water for 1 hour. Next, 2 ml of 0.2 M potassium phosphate was added thereto and the pH was adjusted to 7.5. Thereafter, 2 ml of methyl mercaptan (1 μg/ml) was added thereto and the vial was sealed, followed by stirring with a Vortex mixer for 5 seconds. In the headspace sampler, reaction occurred at 42 degrees C. for 6 minutes, and methyl mercaptan isolated into headspace was directly analyzed via GC/MS. An area of methyl mercaptan obtained as a result of the GC/MS analysis was compared with that of the control to determine the reduction percentage.
Deodorizing Activity (DA, %)=[C−S]/C×100 • C: methyl mercaptan area of control • S: Methyl mercaptan area of test group • See Tokita, F. et al. Nippon Nogeikagaku Kaishi 58(6), p 585 to 589 [1984].
The GC/MS instrument based analysis conditions were set as follows. Headspace Sampler conditions were set as follows: culture temperature: 42 degrees C., culture duration: 6 minutes, and transfer liner temperature: 100 degrees C.
The GC/MS-SIM conditions were set as follows: DB-624(60 m, 0.25 mm, 0.25 um) column was used; Oven Temp: 35 degrees C. for 10 minutes; post run: 250 degrees C. for 30 minutes. Injector/Interface Temp was 150 degrees C. or 220 degrees C. For injection, Split 10:1, flow rate 1 ml/min, methyl mercaptan ion (m/z): quantitative ion 47; and qualitative ion 48 and 45. […]

[2] = test system: halitosis ingredient (Hydrogen sulfide) derived from oral microbes; experiment: Sedimentation of halitosis ingredient by absorbance analysis (FeS, 700 nm) in cultured saliva; format: cell-based, oral bacteria in saliva; details: cultured saliva 0.5 ml, FeSO4, 24 hours 37 degrees C. anaerobic, absorbance 700 nm
Experimental: Using the cigarette prepared in Example 24-1, the sedimentation of halitosis ingredient thereof was measured via absorbance analysis. To this end, an experiment was conducted to identify the reducing ability for the halitosis ingredient derived from oral microbes when smoking the cigarette with the filter having the pine needle and rosemary based substances added thereto.
The experiment for measuring the sedimentation of halitosis ingredients was as follows. Hydrogen sulfide in a volatile sulfur compound as mouth odor ingredient generated when cultivating oral bacteria in saliva was combined with iron in a liquid state such that iron sulfide (FeS) in a form of a black precipitate occurred. Thus, the sedimentation of halitosis ingredient was analyzed. First, whole saliva was incubated for 48 hours at 37 degrees C. under anaerobic conditions. Then, […] of oil based test substance or 20 μl of a single ingredient was added to 0.5 ml cultured saliva. 0.05 g surfactant was added thereto. The salvia was mixed with 0.05 g ferrous sulfate II (FeSO4). The mixture was incubated for 24 hours at 37 degrees C. under anaerobic conditions. Thus, absorbance of the culture was measured at 700 nm to determine sedimentation of halitosis ingredients.
However, there was a limit in the detection in the direct analysis of cigarette due to the difference in smoking amount.

Row | Structure (SMILES) | Methyl mercaptan Reducing ability (%) [1] [%] | Halitosis ingredient (Hydrogen sulfide) Reducing ability (%) [2] [%]
1 | CC12CCC(CC1)C(C)(C)O2 [1,8-Cineol] | 51.9 | 37.0
2 | CC(=O)O[C@@H]1C[C@@H]2CC[C@@]1(C)C2(C)C [Bonyl acetate] | 41.7 | 36.0
3 | CC1(C)C2CCC1(C)C(O)C2 (centres unmarked) [Borneol] | 30.7 | 45.0
4 | CC1=CCC2CC1C2(C)C (stereo not drawn) [α-Pinene] | 54.7 | 50.0
